Patent US8791115B2, “Combination of triazine derivatives and insulin sensitisers” (Poxel SAS, priority 2006, dated 2014)
Where a name gives a salt, the structure may show the parent alone.

Test system: diabetic GK rats
Experiment: Modulation of glucose levels (glycaemia and oral glucose tolerance test) in diabetic GK rats
Type: in vivo, rat
Details: for % variation vs control (glycaemia after 4 days of treatment) / Glycaemia after 4 days of treatment: PO bid for 4 days, alone or combined; for Glycaemia before treatment: baseline before treatment
Experimental: Biological Test: Modulation of Glucose Levels with the Combinations of the Invention with Insulin Sensitisers
The capacity of the compounds of the invention in combination with insulin-sensitising antidiabetic compounds to modify the blood glucose levels is evaluated in vivo in diabetic GK rats.
Alone or in combination, the antidiabetic agents are administered twice a day (bid) to the GK rats for 4 days. The oral glucose tolerance test (OGTT) is performed after the last day of treatment.
OGTT is performed in the morning after 3 hours of fasting by oral administration of a glucose charge of 2 g/kg of body mass. The blood samples are collected from the tail vein at 0; 10; 20; 30; 45; 60; 90 and 120 minutes to determine the glucose levels.
The two compounds were administered alone and in combination. The doses used for the hydrochloride salt of (+)-2-amino-3,6-dihydro-4-dimethylamino-6-methyl-1,3,5-triazine were 50 and 100 mg/kg PO twice daily for 4 days.

[1] = GK rats, triazine salt 100 mg/kg, rosiglitazone 5 mg/kg

| SMILES | fasted plasmatic glucose level (GK rats, 4 days, rosiglitazone 5 mg/kg, triazine salt 100 mg/kg) | glucose tolerance, compared with rosiglitazone (GK rats, OGTT, triazine salt 100 mg/kg vs rosiglitazone 5 mg/kg) | % variation vs control (glycaemia after 4 days of treatment) [1] [%] | Glycaemia after 4 days of treatment [1] [mmol/L] | Glycaemia before treatment (GK rats) [mmol/L] | % decrease in AUC vs control (OGTT after 4 days of treatment PO bid, triazine salt 100 mg/kg, rosiglitazone 5 mg/kg) [%] | Glycaemia R under the curve (AUC) (OGTT, glucose 2 g/kg oral after 3 h fasting, 0-120 min, after 4 days of treatment PO bid, triazine salt 100 mg/kg, rosiglitazone 5 mg/kg) |
| --- | --- | --- | --- | --- | --- | --- | --- |
| CC1N=C(N)NC(N(C)C)=N1 (single isomer, unassigned; (+)) [(+)-2-amino-3,6-dihydro-4-dimethylamino-6-methyl-1,3,5-triazine hydrochloride] | induced a decrease | better glucose tolerance | −16 | 11.01 ± 0.37 | 12.95 ± 0.41 | −19.6 | 2688 +/− 99 |
| CN(CCOc1ccc(CC2SC(=O)NC2=O)cc1)c1ccccn1 (stereo not shown) [Rosiglitazone, rosiglitazone, reference compound] | – | – | −19.7 | 10.52 ± 0.84 | 12.81 ± 0.27 | – | – |
